Laboratory results: patent US20040013643A1, “Methods for treatment of multiple sclerosis with statins” (Novlmmune S.A., priority 2000, published 2004)
“Also recorded” adds a separate entry of the source.

Experiments:
CD40 = experiment: IFN-γ induced CD40 expression on human vascular endothelial cells (Western blot, FACS); format: cell-based; conditions: ECs
Procedure: Cell isolation and culture. Human vascular endothelial cells (ECs) were isolated from saphenous veins and mammary arteries by collagenase treatment (Worthington Biochemicals), and cultured in dishes coated with gelatin (Difco). Cells were maintained in medium 199 (1 4199; BioWhittaker) supplemented with 100 U/ml penicillin/streptomycin (BioWhittaker), 5% FCS (Gibco), 100 μg/ml heparin (Sigma) and 50 μg/ml ECGF (endothelial cell growth factor; Pel-Freez Biological). Human vascular smooth muscle (SMCs) cells were isolated from human saphenous veins and mammary arteries by explant outgrowth, and cultured in DMEM (BioWhittaker) supplemented with 1% L-glutamine (BioWhittaker), 1% penicillin/streptomycin, and 10% FCS. Both cell types were subculture following trypsinization (0.5% trypsin (Worthington Biochemicals)/0.2% EDTA (EM Science)) in P100-culture dishes (Becton Dickinson). Culture media and FCS contained less than 40 pg LPS/ml as determined by chromogenic Limulus amoebocyte-assay analysis (QLC1000; BioWhittaker).
Western blot analysis. Cells were harvested in ice-cold RIPA solubilization buffer, and total amounts of protein were determined using a bicinchoninic acid quantification assay (Pierce, Rockford, Ill.). Twenty μg of total protein/lane were separated by SDS/PAGE under reducing conditions and blotted to polyvinylidene difluoride membranes (Millipore Corp, Bedford, Mass.) using a semidry blotting apparatus (Bio-Rad, Hercules, Calif.). Blots were blocked overnight in 5% defatted dry milk/PBS/0.1% Tween, and then incubated for 1 hour at room temperature with primary antibody (1:40) (rabbit polyclonal anti-CD40 Santa Cruz, San Diego, Calif.), or mouse monoclonal anti-human P-actin (1:5000) (Phanningen) for control of loading. This was followed by a 1 hour incubation with secondary peroxidase-conjugated antibody (1:10′000), (Jackson Immunoresearch, West Grove, Pa.). All steps were performed at room temperature and in between incubation steps cells were rinsed with PBS/0.1% Tween. lmmunoreactivity was detected using the enhanced chemiluminescence detection method according to the manufacturer's instructions. (Amersharn, Ddbendorf, Switzerland), and subsequent exposure of the membranes to x-ray film. Analysis of quantification of detection was performed using AIDA software.
Flow cytometry. Cells were incubated with FITC-conjugated specific antibody (60 min, […]) and analyzed in a Becton Dickinson FACScan flow cytometer. At least 20.000 viable cells were analyzed per condition. Data were analyzed using […] software (Becton Dickinson).
Surface CD40 expression was analyzed by […] after 24 hrs.

MHC class II = conditions: Atorvastatin, Lovastatin, Pravastatin compared; FIG. 1a
Procedure: Cell isolation and culture. […] Flow cytometry. […] Data were analyzed using […] software (Becton Dickinson).

CD40 mediated pathways = experiment: Cytokine release (MCP-1, IL-6, IL-8) from endothelial cells activated by CD40L, ELISA; format: cell-based, human; conditions: ECs; CD154 stimulation with statin; L-mevalonate added
Procedure: Cytokines assay. […] Experiments were performed in the presence of polymyxin B (1 μg/ml). Antibody binding was detected by adding substrate (R&D), and absorbance measured at 450 nm using a Dynatech plate reader. The amount of IL-6, IL-8 and MCP-I detected was calculated from a standard curve prepared with the recombinant protein. Samples were assayed in duplicates.
To investigate the functional consequences of inhibition of CD40 expression by statins on Endothelial Cells activation by CD40L, secreted cytokines were analyzed such as Interleukin-6 (IL-6), interleukin-8 (IL-8), macrophages chemoattractant protein-1 (MCP-1).

| Compound | IFN-γ induced CD40 expression (CD40; IFN-γ 500 U/ml, 24 hrs) | concentration range over which the effect on IFN-γ induced CD40 was observed (CD40; IFN-γ 500 U/ml, 24 hrs, FIG. 7) [µM] | IFN-γ induced CD40 expression (CD40; IFN-γ 500 U/ml, 24 hrs, listed as atorvastatin) | effect on IFN-γ induced CD40 in the presence of L-mevalonate (CD40; with L-mevalonate) | CD40 expression, treatment with statin alone (CD40; without IFN-γ) | relative potency as MHC class II repressor among the forms tested (MHC class II) | reversal of the statin effect by addition of L-mevalonate (CD40 mediated pathways) |
| --- | --- | --- | --- | --- | --- | --- | --- |
| CC(C)c1c(C(=O)Nc2ccccc2)c(-c2ccccc2)c(-c2ccc(F)cc2)n1CC[C@@H](O)C[C@@H](O)CC(=O)O [Atorvastatin] | repressed this induction of CD40 in a dose-dependant manner; also recorded: decreases IFN-γ induced CD40 protein expression on human atheroma-associated cells in a dose-dependant manner | 0.08 to 0.5 | decreased | markedly reduced | had an effect on CD40 expression | most powerful MHC class II repressor |  |
| CC[C@H](C)C(=O)O[C@H]1C[C@@H](C)C=C2C=C[C@H](C)[C@H](CC[C@@H]3C[C@@H](O)CC(=O)O3)[C@H]21 [Lovastatin] | decreased |  |  |  |  |  |  |
| L-mevalonate |  |  |  |  |  |  | significantly reverses the process |
